Laboratory results taken from patent US4876346A, “Quinoline compounds” (American Home Products Corporation, priority 1986, dated 1989).
Counter-ions that a name gives are not always drawn. Like-named read-outs stand apart in the source and are kept apart here.

What was measured:
[1] = test system: LTD4 induced bronchoconstriction; assay: In vivo inhibition of bronchospasm induced in guinea pigs by exogenously administered leukotrienes (Example 11); parameters: species or system guinea pig (male Hartley); details: 10 minutes before induction of bronchospasm (LTD4), guinea pig; for inhibition in vivo at 50 mg/kg / inhibition in vivo at 25 mg/kg: Cavia porcellus, read-out: % Inhibition of Max AUC
[2] = test system: 5-HETE synthesis by rat glycogen elicited polymorphonuclear leukocytes; assay: Inhibition of synthesis of 5-HETE by rat glycogen elicited polymorphonuclear leukocytes (Example 10); type: cell-based, rat (female Wistar); details: Leukocyte, [14C]5-HETE synthesis, rat PMN; for IC50: read-out: 50% Inhibitory Concentration (IC50)
Method: (§1) The assay is carried out as follows:
Peritoneal PMN are obtained from female Wistar rats (150-250 g) that received an i.p. injection of 6% glycogen (10 ml). After 24 hours, rats are killed by CO2 asphyxiation and peritoneal cells are harvested by peritoneal lavage using Ca^++ and Mg^++ free Hanks' balanced salt solution (HBSS). The peritoneal exudate is centrifuged at 400 g for 10 minutes. After centrifugation, the lavaged fluid is removed and the cell pellet is […] in HBSS containing Ca^++ and Mg^++ and 10 mM L-cystein at a concentration of 2×10^7 cells/ml. To 1 ml portions of cell suspens, test drugs or vehicle are added and incubated at 37° C. for 10 minutes. Following this preincubation, the calcium ionophore (10 μM), A23187, is added together with 0.5 μCi [^14 C] arachidonic acid and further incubated for 10 minutes. The reaction is stopped by the addition of ice cold water (3 ml) and acidifying to pH 3.5. Lipoxygenase products are then extracted twice into diethyl ether. The pooled ether extracts are evaporated to dryness under nitrogen and the residue is redissolved in a small volume of methanol and spotted on aluminum backed pre-coated thin layer chromatographic plates. The samples are then co-chromatographed with authentic reference 5-HETE in the solvent system--hexane:ether:acetic acid (50:50:3). After chromatography, the areas associated with 5-HETE standard are identified by autoradiography, cut out and quantitated by liquid scintillation.
Results are expressed as % inhibition of [^14 C]5-HETE synthesis. [formula]

[3] = test system: ovalbumin induced bronchospasm; assay: In vivo inhibition of ovalbumin induced bronchospasm in sensitized guinea pigs mediated by endogenous mediators (Example 12); parameters: species or system guinea pig (male Hartley); details: Cavia porcellus, 10 minutes before ovalbumin challenge, guinea pig, read-out: % Inhibition of Max AUC
Method: The assay of this Example measures the in vivo ability of the compounds of the invention to inhibit the bronchospasm induced in guinea pigs by endogenous mediators of the bronchoconstriction.
as §1
Male Hartley strain guinea pigs weighing 250-350 g are sensitized to chicken ovalbumin (OA) (10 mg i.p.) on days 1 and 3 and used starting on day 26. The animals are anesthetized with pentobarbital sodium (50 mg/kg, i.p.), bilateral vagotomy is performed, and the jugular vein is cannulated for injection of drugs and the carotid artery for monitoring blood pressure. The trachea is cannulated for artificial ventilation by miniature Starling pump and for indirect measurement of respiratory volume changes as described, infra. Succinylcholine (2 mg/kg, i.v.) is administered to arrest spontaneous respiration. A cyclooxygenase inhibitor, indomethacin (10 mg/kg in tris buffer, i.v. at 9 min.) is administered to shunt arachidonic metabolism to lipoxygenase pathways. One minute later, chlorpheniramine (1.0 mg/kg in saline, i.v.) is given to attenuate the histaminic component of anaphylactic bronchoconstriction. Test drugs (dissolved in propylene glycol, polyethylene glycol or saline) are administered either intraduodenally or by aerosol at 2 or 10 minutes before antigen challenge. Anaphylactic bronchoconstriction is induced by administration by breaths of aerosolized OA (1%) or by intravenous administration of 0.1-0.3 mg/kg OA in saline. Control animals receive solvent (2 ml/kg i.d. or appropriate aerosol) in place of drug.
Respiratory volume changes are determined by a calibrated piston whose travel is recorded, via a linear transducer, on a Beckman Dynograph recorder. Maximal bronchoconstrictor volume is determined by clamping off the trachea at the end of the experiment. Overflow volumes at minutes 1, 3 and 5 are obtained from the recorded charts.
Area under the volume overflow curve (AUC) is estimated, using the overflow values at 1, 3 and 5 minutes, and expressed as a percentage of the maximal overflow AUC (equation 1): [formula] Drug effects are reported as percent inhibition of % max AUC values obtained from appropriate control animals (equation 2): [formula] Students t-test for unpaired data is used to determine statistical significance. Dose response curves are generated and ED50 doses are interpolated from the regression lines.
Results for compounds of the invention in this assay, using LTD4 for induction of bronchospasm, are given below: […]

With `CN(C[C@H](O)c1cccc(OCc2ccc3ccccc3n2)c1)C(=O)N(c1ccccc1)c1ccccc1` [Example 2E, (1R)-1-[3-[(2-Quinolinyl)methoxy]phenyl]-2-(N-methyl-N-diphenylcarbamoyl)amino ethanol, hydrochloride] the inhibition in vivo at 50 mg/kg ([1]; 50 mg/kg intraduodenal) was 21% and the inhibition at 50 µM [2] was > 50%.

For `COC(=O)[C@@H]1CCCN1C(=O)N(C)C[C@H](O)c1cccc(OCc2ccc3ccccc3n2)c1` [Example 2I, (S)-1-[[[(R)-2-Hydroxy-2-[3-(2-quinolinylmethoxy)phenyl]ethyl]methylamino]carbonyl]-2-pyrrolidine carboxylic acid, methyl ester, hydrochloride], the inhibition in vivo at 50 mg/kg ([3]; 50 mg/kg intraduodenal) was 22.5% and the inhibition in vivo at 50 mg/kg ([1]; 50 mg/kg intraduodenal) was 71.2%.

For `CN(C)C(=O)N(C)C[C@H](O)c1cccc(OCc2ccc3ccccc3n2)c1` [Example 2F, (1R)-1-[3-[(2-Quinolinyl)methoxy]phenyl]-2-(N-methyl-N-dimethylcarbamoyl)amino ethanol], the inhibition in vivo at 50 mg/kg ([1]; 50 mg/kg intraduodenal) was 92.6% and the inhibition at 50 µM [2] was > 50%.

Compound `CCOC(=O)CC(=O)NCC(O)c1cccc(OCc2ccc3ccccc3n2)c1` (racemic) [Example 7C, 3-[[2-Hydroxy-2-[3-(2-quinolinylmethoxy)phenyl]ethyl]amino]-3-oxopropanoicacid, ethyl ester] has an inhibition in vivo at 25 mg/kg ([1]; 25 mg/kg intraduodenal) of 24.9%.

`CCN(CC)C(=O)N(CC)C[C@H](O)c1cccc(OCc2ccc3ccccc3n2)c1` [Example 2G, (1R)-1-[3-[(2-Quinolinyl)methoxy]phenyl]-2-(N-ethyl-N-diethylcarbamoyl)amino ethanol] was tested, and the inhibition in vivo at 50 mg/kg ([1]; 50 mg/kg intraduodenal) was 65.1% and the inhibition at 50 µM [2] was > 50%.

“N-[2-Hydroxy-2-[3-(2-quinolinyl)phenyl]ethyl]benzamide [Example 7A]” was tested, and the “% Inhibition of Max AUC” value ([1]; 25 mg/kg intraduodenal) was 18.1%.

In the case of `C#CCN(C)C[C@H](O)c1cccc(OCc2ccc3ccccc3n2)c1` [Example 8, α-[[Methyl-(2-propynyl)amino]methyl]-3-(2-quinolinylmethoxy)benzene methanol], the inhibition in vivo at 25 mg/kg ([1]; 25 mg/kg intraduodenal) is reported as 41.2%.

Compound `CCN(CC)C(=O)N(C)C[C@H](O)c1cccc(OCc2ccc3ccccc3n2)c1` [Example 2B, (1R)-1-[3-[(2-Quinolinyl)methoxy]phenyl]-2-(N-methyl-N-diethylcarbamoyl)amino ethanol] has an inhibition in vivo at 50 mg/kg ([3]; 50 mg/kg intraduodenal) of 75.8%.

With `O=C(NCC(O)c1cccc(OCc2ccc3ccccc3n2)c1)c1cccs1` (stereo not shown) [Example 7B, N-[2-Hydroxy-2-[3-(2-quinolinylmethoxy)phenyl]ethyl]-2-thiophene carboxamide] the inhibition in vivo at 25 mg/kg ([1]; 25 mg/kg intraduodenal) was 81.9%.

In the case of `CN(C)S(=O)(=O)N(C)C[C@H](O)c1cccc(OCc2ccc3ccccc3n2)c1` [Example 2H, (1R)-1-[3-[(2-Quinolinyl)methoxy]phenyl]-2-(N-methyl-N-dimethylsulfamoyl)amino ethanol], the inhibition in vivo at 50 mg/kg ([3]; 50 mg/kg intraduodenal) is reported as 2.5%, the inhibition in vivo at 50 mg/kg ([1]; po, 50 mg/kg peroral) is reported as 25.4% and the inhibition in vivo at 50 mg/kg ([1]; 50 mg/kg intraduodenal) is reported as 56%.

Work on `CCNC(=O)N(C)C[C@H](O)c1cccc(OCc2ccc3ccccc3n2)c1` [Example 3] yielded an inhibition in vivo at 50 mg/kg ([3]; po, 50 mg/kg peroral) of 46.4%, an inhibition in vivo at 25 mg/kg ([1]; 25 mg/kg intraduodenal) of 94.9% and an inhibition in vivo at 50 mg/kg ([1]; 50 mg/kg intraduodenal) of 81.7%.

For `CCN(CC)C(=O)N(C)C[C@H](O)c1cccc(OCc2nc3ccccc3s2)c1` [Example 1, (1R)-1-[3-[(2-Benzthiazoyl)-methoxy]phenyl]-2-(N-methyl-N-diethylcarbamoyl)amino ethanol], the inhibition in vivo at 50 mg/kg ([1]; 50 mg/kg intraduodenal) was 59.2%, the inhibition at 50 µM [2] was > 50% and the IC50 [2] was 40.4 µM.

Compound `CCOC(=O)N(C)C[C@H](O)c1cccc(OCc2ccc3ccccc3n2)c1` [Example 2K, (1R)-1-[3-[(2-Quinolinyl)methoxy]phenyl]-2-(N-methyl-N-ethylcarboxylate)amino ethanol] has an inhibition in vivo at 50 mg/kg ([1]; 50 mg/kg intraduodenal) of 70.6%.

In the case of `CCN(CC)C(=O)N(C)C[C@@H](O)c1cccc(OCc2ccc3ccccc3n2)c1` [Example 2J, (1S)-1-[3-[(2-Quinolinyl)methoxy]phenyl]-2-(N-methyl-N-diethylcarbamoyl)amino ethanol], the inhibition in vivo at 25 mg/kg ([3]; 25 mg/kg intraduodenal) is reported as 81.2%.

With `CCOC(=O)NCC(O)c1cccc(OCc2ccc3ccccc3n2)c1` (stereo not shown) [Example 2L, 1-[3-[(2-Quinolinyl)methoxy]phenyl]-2-(N-ethylcarboxylate)amino ethanol] the inhibition in vivo at 25 mg/kg ([1]; 25 mg/kg intraduodenal) was 35.6%.

`CCNC(=O)O[C@@H](CN(C)C(=O)NCC)c1cccc(OCc2ccc3ccccc3n2)c1` [Example 5, Ethylcarbamic acid (1R)-2-[[(ethylamino)carbonyl]methylamino]-1-[3-(2-quinolinylmethoxy)phenyl]ethyl ester, hydrochloride] showed an inhibition in vivo at 50 mg/kg ([3]; 50 mg/kg intraduodenal) of 80.2%, an inhibition in vivo at 50 mg/kg ([1]; po, 50 mg/kg peroral) of 18.6% and an inhibition in vivo at 50 mg/kg ([1]; 50 mg/kg intraduodenal) of 54.2%.

`CN(C[C@H](O)c1cccc(OCc2ccc3ccccc3n2)c1)C(=O)c1ccncc1` [Example 2D, (1R)-1-[3-[(2-Quinolinyl)methoxy]phenyl]-2-[N-methyl-N-(4-pyridinoyl)]amino ethanol] was tested, and the inhibition in vivo at 50 mg/kg ([1]; 50 mg/kg intraduodenal) was 43.9% and the inhibition at 50 µM [2] was < 50%.

`O=C(NCC(O)c1cccc(OCc2ccc3ccccc3n2)c1)c1ccccn1` (stereo not shown) [Example 6, N-[2-Hydroxy-2-[3-(2-quinolinylmethoxy)phenyl]ethyl]-2-pyridine carboxamide] gave an inhibition in vivo at 25 mg/kg ([1]; 25 mg/kg intraduodenal) of 19.8%.

With `CCN(CC)C(=O)N(C)C[C@H](O)c1cccc(OCc2nc3ccccc3n2C)c1` [Example 2A, (1R)-1-[3-[(1-Methyl-2-benzimidazoyl)methoxy]phenyl]-2-(N-methyl-N-diethylcarbamoyl)amino ethanol] the inhibition in vivo at 50 mg/kg ([3]; 50 mg/kg intraduodenal) was 83.4%, the inhibition in vivo at 50 mg/kg ([1]; 50 mg/kg intraduodenal) was 77.2% and the inhibition at 50 µM [2] was > 50%. It also gave an IC50 [2] of 16.4 µM.

Work on `O=S(=O)(NCC(O)c1cccc(OCc2ccc3ccccc3n2)c1)C(F)(F)F` (stereo not shown) [Example 9, 1,1,1-Trifluoro-N-[2-hydroxy-2-[3-(2-quinolinylmethoxy)phenyl]ethyl]methanesulfonamide] yielded an inhibition in vivo at 25 mg/kg ([1]; po, 25 mg/kg peroral) of 75.6% and an inhibition in vivo at 25 mg/kg ([1]; 25 mg/kg intraduodenal) of 84.8%.

In the case of `CCC(=O)N(C)C[C@H](O)c1cccc(OCc2nc3ccccc3n2C)c1` [Example 2C, (1R)-1-[3-[(1-Methyl-2-benzimidazoyl)methoxy]phenyl]-2-(N-methyl-N-propanoyl)amino ethanol], the inhibition in vivo at 50 mg/kg ([3]; 50 mg/kg intraduodenal) is reported as 65.6%, the inhibition in vivo at 50 mg/kg ([1]; 50 mg/kg intraduodenal) is reported as 63.9% and the inhibition at 50 µM [2] is reported as < 50%.
